Measured values as given in PubChem BioAssay (NCI).
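A five-concentration, 48-hour dose response in 96-well plates underlies each endpoint, interpolated linearly between surrounding concentrations. GI50 is the concentration that inhibits growth by half. Definition used: TGI = concentration required for complete inhibition of growth.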

Experiments:
Assay in all cases: NCI tumour cell line growth inhibition, 48 h
T-47D breast = system: T-47D breast
PC-3 prostate = system: PC-3 prostate
HS 578T breast = system: HS 578T breast

| Structure (SMILES) | GI50 (T-47D breast) [µM] | TGI (T-47D breast) [µM] | GI50 (PC-3 prostate) [µM] | TGI (PC-3 prostate) [µM] | GI50 (HS 578T breast) [µM] | TGI (HS 578T breast) [µM] |
| --- | --- | --- | --- | --- | --- | --- |
| ClCc1ccc(-c2ccc(Cn3cnc4c(Cl)nc(Cl)nc43)cc2)cc1 | 1.9 | 4.64 | 2.21 | 5.28 | 3.14 | 11.1 |
| COc1cc(/C=C2\CN(C)C/C(=C\c3cc(OC)c(OC)c(OC)c3)C2=O)cc(OC)c1OC | 1.12 | 5.02 | 1.32 | 4.52 | 1.01 | > 63.5 |
| CN[C@]12CC3(C=CC(=O)C=C3)O[C@@]1(Cc1ccc(OC)cc1)N(C)C(=O)N2 | 2.12 | 7.23 | 0.695 | 4.31 | 4.62 | > 100 |
| Cn1ncc2c(/N=C/c3cccs3)[nH]c(=S)nc21 | 35.9 | > 100 | 40.7 | > 100 | 24.9 | 77 |
| COC(=O)C(C)NP(=O)(OCc1ccc(Cn2cnc3c(=O)[nH]c(N)nc32)cc1)Oc1ccccc1 (configuration not stated) | 34.6 | > 100 | > 100 | > 100 | > 100 | > 100 |
| O=C1OCc2c1cc(F)cc2[N+](=O)[O-] | > 100 | > 100 | > 100 | > 100 | > 100 | > 100 |
| COc1cc(/C=C/C(=O)c2ccc(Nc3ncnc4ccccc34)cc2)cc(OC)c1 | 6.2 | 39.4 | 3.36 | 31.6 | 8.21 | 69.8 |
| CCOC(=O)c1c(-c2ccccc2)[n+](=O)c2ccc(Cl)cc2n1[O-] | – | – | 3.05 | 12 | 4.63 | 31.8 |
| C=C1C(=O)O[C@H]2[C@H]1CC/C(COC(=O)CCCCCCCCC(=O)OC/C1=C/CC[C@@]3(C)O[C@H]3[C@H]3OC(=O)C(=C)[C@@H]3CC1)=C\CC[C@@]1(C)O[C@@H]21 | 2.16 | 6.2 | 1.99 | 4.35 | 2.91 | 9.88 |
| COc1cc(C#N)cc(OC)c1OCCOCCOc1c(OC)cc(C#N)cc1OC | 21.7 | > 100 | 31.9 | > 100 | > 100 | > 100 |
| CN1CCC[C@@H]1CCO[C@](C)(c1ccccc1)c1ccc(Cl)cc1 | 3.29 | 16.4 | 4.58 | 17 | 12.2 | 36 |
| CN(C)CCCN(c1nc(C(Cl)(Cl)Cl)ns1)c1nc(C(Cl)(Cl)Cl)ns1 | 2.98 | 10.5 | 1.94 | 5.14 | 1.72 | 4.46 |
| CCOC(=O)c1c(C)nc2ccc(Cl)cc2c1-c1ccccc1 | 12.9 | 47.8 | 20 | 65.9 | 19.6 | 52.1 |
| O=C(Nc1ccccc1)Nc1cccc(-n2cc(-c3ccncc3)c(-c3ccc(O)c(Cl)c3)n2)c1 | 4.34 | 25.8 | 3.19 | 19.6 | 3.24 | > 100 |
| S=c1nc2[nH]ncc2c(N/N=C/c2ccccc2)[nH]1 | – | – | > 100 | > 100 | > 100 | > 100 |
| C/C(CC(=O)NNc1ccc([N+](=O)[O-])cc1)=N\Nc1ccc([N+](=O)[O-])cc1 | 3.71 | > 100 | 4.26 | > 100 | 17.4 | > 100 |
| Cn1cccc1-c1cc(-c2cccs2)[nH]c(=O)c1C#N | > 100 | > 100 | > 100 | > 100 | > 100 | > 100 |
| O=C1C(=O)c2ccccc2-c2ccccc21 | 0.49 | 2.72 | 1.31 | 2.79 | 3.14 | 9.86 |
| COc1ccc(-c2nn(-c3cccc(NC(=O)Nc4ccc(Cl)c(C(F)(F)F)c4)c3)cc2-c2ccncc2)cc1Cl | 2.22 | > 100 | 1.32 | 6.85 | 2.27 | 9.3 |
| Clc1cc(Cl)c(Cl)c(-c2nc(-c3cccnc3)cs2)c1 | 12.7 | 65.4 | 59.4 | > 100 | 18.6 | 55.5 |
| CCOC(=O)/C(=C/c1ccc([N+](=O)[O-])cc1)C(=O)c1ccccc1 | 2.64 | 8.35 | 2.46 | 6.11 | 3.44 | 12.8 |
| O=C(O)c1ccc2c(c1Nc1ccccc1)C(=O)c1ccccc1C2=O | 45.6 | > 100 | 54.1 | > 100 | – | – |
| CCN(CC)CCOc1ccc(/C(=C(\C)Cc2ccc(OC)cc2)c2ccc(OC(=O)NCc3ccccc3)cc2)cc1 | 1.2 | 4.11 | 1.94 | 3.88 | 2.36 | 6.16 |
| CC#CS(=O)(=O)c1ccccc1 | – | 6.22 | – | 25.2 | – | 41.8 |
| Cc1ccc(S(=O)(=O)/N=c2\ssc(Nc3ccccc3)c2Cl)cc1 | – | – | 6.95 | 18.4 | – | – |
